Here are results for four compounds from patent publication EP3516395B1, “METHOD FOR DETERMINING AFFINITY BETWEEN LIGANDS AND A TARGET” (Plant Advanced Technologies Pat, priority 2016, dated 2018).

Read-outs that look alike come from different tables or passages of the source.

Assay [1] concerns collagénase issue de Clostridium histolyticum. As to the kind of experiment: Relative affinity by competitive binding, ultrafiltration and LC-MS (Examples 2, 3, 6). The note with it: for Affinités relatives: reference 3,5-DCQ. As for the experimental part:
Une solution de travail de collagénase issue de Clostridium histolyticum à 6.25 mg/mL est préparée en dissolvant de la poudre de l'enzyme lyophilisée dans 50 mM d'acétate d'ammonium, avec un pH de 7.5, ajusté par une solution aqueuse d'ammoniac. L'échantillon est préparé en utilisant l'un des solvants suivants : des glycols, le DMSO (diméthylsulfoxide), l'éthanol, pur ou en solution dans l'eau. La concentration dans l'échantillon des ligands initiaux est équimolaire et doit être dans la gamme de 0,75 à 1 mM. Les ligands choisis étaient des isomères d'acide 3,5-dicaféoylquinique (noté 3,5-DCQ par la suite) et des isomères d'esters d'acide 3,5-dicaféoylquinique et de dipropylène glycol (noté 3,5-DCQ-DPG par la suite). Un échantillon de référence est préparé également en diluant l'échantillon de 10 à 20 fois dans une solution d'eau et d'un quart de volume d'acétonitrile.
• 1. Étape de préconditionnement - Des puits à membrane filtrante sont pré-conditionnées avec un volume de 500 µl d'acétate d'ammonium 50mM pH 7,5 qui est passé à travers la membrane avec une centrifugation de 14000 g pendant 60 secondes. • 2. Étape de liaison - Un volume de 75 µl de la solution de collagénase à une concentration de 6,25mg/ml dans 50 mM d'acétate d'ammonium, avec un pH de 7.5 est mélangé avec 10 µl de l'échantillon pendant 10 min dans un tube d'Eppendorf en plastique. Dans ce mélange, on a 55,79 µM de collagénase et une gamme de 93,75 µM à 125 µM de ligands (3,5-DCQ et 3,5-DCQ-DPG) soit un ratio ligands/cible entre […]. • 3. Étape de lavage - Le mélange de l'enzyme et de l'échantillon est déposé dans un puits préconditionné à l'étape de préconditionnement, puis centrifugé à 14000 g jusqu'à l'élimination de l'essentiel du solvant. Les complexes enzyme-ligands restent à la surface de la membrane du filtre puis sont à nouveau suspendu dans un volume de 100 µL de la même solution à 50 mM d'acétate d'ammonium, avec un pH de 7.5 et centrifugé à 14000 g jusqu'à élimination du solvant. Cette procédure est répétée trois fois et élimine tous les composés qui ne sont pas liés à l'enzyme. • 4. Étape de séparation - Les complexes enzyme-ligands retenus dans le filtre sont à nouveau suspendus dans un volume de 10 µL d'eau ultra-pure, puis sont mélangés avec un volume de 40 µL d'acétonitrile pour dénaturer et précipiter l'enzyme et, en même temps libérer les ligands. Le mélange est centrifugé à 21000 g pendant 10 min pour séparer le précipité du surnageant. • 5. Étape d'analyse - Ledit surnageant formant la solution traitée est analysé par chromatographie en phase liquide couplée à une spectrométrie de masse. L'échantillon de référence est analysé également de la même manière, en utilisant les mêmes conditions d'analyse. Les affinités relatives sont calculées selon la méthode décrite ci-après. Le résultat est sur la première ligne du tableau 3.
Plusieurs échantillons sont préparés comme dans l'exemple 2, mais avec une proportion entre les ligands 3,5-DCQ et 3,5-DCQ-DPG non plus équimolaire mais déséquilibrée, comme indiqué dans le tableau 3 ci-après.
L'analyse est conduite de la même manière que dans l'exemple 2. Les résultats sont de la deuxième à la quatrième ligne du tableau 3.
La préparation des échantillons (ligands et cible) et leur analyse ont été réalisés selon l'exemple 2. Les effets des variations du rapport de ligands/cible ont été évalués.
Une analyse par chromatographie en phase liquide fournit un chromatogramme tel que montré par les figures 1 et 2. Le chromatogramme représente une intensité de signal en fonction du temps de rétention dans une colonne. Le signal présente différents pics d'intensité variable. Chaque pic est associé à l'un des ligands présent dans l'échantillon et la solution traitée. • 1. Normalisation de l'intensité du signal analytique pour les ligands dans l'échantillon de référence. […]

Assay [2] deals with collagénase issue de Clostridium histolyticum. Put plainly: Collagenase inhibition with synthetic substrate FALGPA (Example 4). The format is biochemical. The note with it: for activité de la collagénase: ligand 5µM, FALGPA 1 mM, tris-HCl buffer alone = 100%. As for the experimental part:
L'activité inhibitrice de la collagénase issue de Clostridium histolyticum a été expérimentée en mettant en présence de la collagénase et du substrat synthétique FALGPA (N-(3-[2-Furyl]acryloyl)-Leu-Gly-Pro-Ala) préparé à une concentration de 1 mM, du tampon tris-HCI seul pour établir une référence, et en présence respectivement de tampon tris-HCI additionné de 3,5-DCQ et 3,5-DCQ-DPG en concentration à 5µM. La référence montrant une activité de la collagénase de 100%, on a mesuré une activité de la collagénase de 94% en présence de 3,5-DCQ et une activité de 50% en présence de 3,5-DCQ-DPG. A cette concentration, la collagénase de Clostridium histolyticum est inhibée de manière significative par le 3,5-DCQ-DPG, tandis qu'elle ne l'est que très peu par le 3,5-DCQ.

Another assay has as its system tyrosinase de champignon. As to the kind of experiment: Relative affinity by competitive binding, ultrafiltration and UPLC-MS/UV (Example 1). To be noted: equimolar ligands; for Facteur de normalisation, solution traitée: NFTB, peak area UV 270 nm relative to reference ligand moracénine B; for Affinités relatives: RA = NFTB/NFeq, reference ligand moracénine B. As for the experimental part: Une solution de travail de tyrosinase de champignon à 1.25 mg/mL est préparée en dissolvant de la poudre de l'enzyme lyophilisée dans 50 mM d'acétate d'ammonium, avec un pH de 7.0. L'échantillon est préparé en utilisant l'un des solvants suivants : des glycols, DMSO (diméthylsulfoxide), l'éthanol, pur ou en solution dans l'eau. La concentration dans l'échantillon des ligands initiaux est équimolaire et doit être dans la gamme de 0,75 à 1 mM. Les ligands choisis étaient des inhibiteurs connus de la tyrosinase isolés depuis des racines de murier noir (Morus nigra) : la moracénine A, moracénine B et la kuwanone C. Un échantillon de référence est préparé également en diluant l'échantillon de 10 à 20 fois dans une solution d'eau et d'un quart de volume d'acétonitrile.
• 1. Étape de préconditionnement - Des puits à membrane filtrante sont pré-conditionnées avec un volume de 500 µl d'une solution à 85% d'acétate d'ammonium et 15% d'éthanol qui est passé à travers la membrane avec une centrifugation de 14000 g pendant 60 secondes. • 2. Étape de liaison - La préparation de tyrosinase (1.25 mg/mL, 75 µL) est mélangée avec 5 µl de l'échantillon dans un tube d'Eppendorf en plastique, puis est incubée pendant 5 min. Dans ce mélange, on a 9,16 µM de tyrosinase et une gamme de 46,88 µM à 62,5 µM de ligands (moracénine A, moracénine B et kuwanone C) soit un ratio ligands/cible allant de 5,12 à 6,83. • 3. Étape de lavage - le mélange de l'enzyme et de l'échantillon est déposé dans un puits préconditionné à l'étape de préconditionnement, puis centrifugé à 14000 g jusqu'à l'élimination de l'essentiel du solvant. Les complexes enzyme-ligands restent à la surface de la membrane du filtre puis sont à nouveau suspendu dans un volume de 100 µL de la même solution à 85% d'acétate d'ammonium et 15% d'éthanol et centrifugé à 14000 g jusqu'à élimination du solvant. Cette procédure est répétée trois fois et élimine tous les composés qui ne sont pas liés à l'enzyme. • 4. Étape de séparation - Les complexes enzyme-ligands retenus dans le filtre sont à nouveau suspendus dans un volume de 10 µL d'eau ultra-pure, puis sont mélangés avec un volume de 40 µL d'acétonitrile pour dénaturer et précipiter l'enzyme et, en même temps libérer les ligands. Le mélange est centrifugé à 21000 g pendant 10 min pour séparer le précipité du surnageant. • 5. Étape d'analyse - Ledit surnageant formant la solution traitée est analysé par chromatographie en phase liquide couplée à une spectrométrie de masse, connue également par l'acronyme UPLC-MS. L'échantillon de référence est analysé également de la même manière, en utilisant les mêmes conditions d'analyse. Les affinités relatives sont calculées selon la méthode décrite ci-après. De préférence, l'échantillon de référence et la solution traitée sont analysés séquentiellement pour éliminer des dispersions dues aux réglages de l'appareillage.
Une analyse par chromatographie en phase liquide fournit un chromatogramme tel que montré par les figures 1 et 2. Le chromatogramme représente une intensité de signal en fonction du temps de rétention dans une colonne. Le signal présente différents pics d'intensité variable. Chaque pic est associé à l'un des ligands présent dans l'échantillon et la solution traitée. • 1. Normalisation de l'intensité du signal analytique pour les ligands dans l'échantillon de référence. Pour chaque chaque ligand CEi dans l'échantillon de référence, on établit des facteurs de normalisation NFeq dudit ligand CEi par comparaison au ligand de référence REF, selon l'équation suivante : NFeq,CEi = (ISeq,CEi)/(ISeq,REF) [formula] où : • NF est un facteur de normalisation; • ISeq,CEi est l'intensité du signal analytique pour le ligand CEi dans l'échantillon; • ISeq,REF est l'intensité du signal analytique pour le ligand de référence REF dans l'échantillon. L'intensité peut être choisie parmi l'aire du pic ou la valeur maximale du pic. Le facteur de normalisation du ligand de référence vaut toujours 1. • 2. […]

Assay [3] concerns the target collagénase issue de Clostridium histolyticum. The note with it: J. Nat. Prod. 2005, 68, 794-796; cited from earlier work.
Where [4] appears, read: ex. 2, molar ratio 3,5-DCQ-DPG/3,5-DCQ 1/1 (équimolaire).
Setting [5] is: ex. 3.1, molar ratio 3,5-DCQ-DPG/3,5-DCQ 0,5/1.
Where [6] appears, read: ex. 3.2, molar ratio 3,5-DCQ-DPG/3,5-DCQ 0,2/1.
Setting [7] is: ex. 3.3, molar ratio 3,5-DCQ-DPG/3,5-DCQ 3/1.

With “esters d'acide 3,5-dicaféoylquinique et de dipropylène glycol [3,5-DCQ-DPG]”, the “Facteur de normalisation, solution traitée” value (“Facteur de normalisation” below) is listed as 6,03 in assay [1] (setting [4]), 2,49 in assay [1] (setting [5]), 0,81 in assay [1] (setting [6]) and 13,64 in assay [1] (setting [7]). The Affinités relatives in assay [1] (setting [4]) is listed as 5,21; in assay [1] (setting [5]), 4,05; in assay [1] (setting [6]), 3,01; in assay [1] (setting [7]), 4,09. For the same compound, the “(RADCQ−DPG^Mx)/(RADCQ−DPG^Mref)” value is on record as 0,96 in assay [1] (sample M_1: collagénase 32,1 µM, DCQ/DCQ-DPG 75/75 µM, ligands/collagénase 2,33, competition); 0,71 in assay [1] (sample M_2: collagénase 32,1 µM, DCQ/DCQ-DPG 50/50 µM, ligands/collagénase 1,56, competition); 0,47 in assay [1] (sample M_3: collagénase 32,1 µM, DCQ/DCQ-DPG 15/15 µM, ligands/collagénase 0,47, no competition). In assay [2] (approximate, from Example 4 (50% activity at 5µM)), the IC50 (usually the point on the concentration scale where inhibition reaches its midpoint) was roughly 5 µM. The “activité de la collagénase” value in assay [2] is given as 50%.

Turning to `CC(C)=CCc1c(-c2ccc(O)cc2O)oc2c(CC=C(C)C)c(O)cc(O)c2c1=O` [kuwanone C], in the assay on tyrosinase de champignon, the “Facteur de normalisation” value was 0,78 and the Affinités relatives was 1,07.

On to `O=C(/C=C/c1ccc(O)c(O)c1)OC1CC(O)(C(=O)O)CC(OC(=O)/C=C/c2ccc(O)c(O)c2)C1O` (stereo not drawn) [3,5-DCQ, acide 3,5-dicaféoylquinique], for which the “Facteur de normalisation” value in assay [1] (setting [4]), in assay [1] (setting [5]), in assay [1] (setting [6]) and in assay [1] (setting [7]) was 1,00 throughout. For the same compound, the Affinités relatives in assay [1] (setting [4]), in assay [1] (setting [5]), in assay [1] (setting [6]) and in assay [1] (setting [7]) was 1,00 in each case. In addition, the “activité de la collagénase” value in assay [2] is 94%. In addition, in assay [3], the IC50 is 23.6 µM.

Regarding moracénine B, in the assay with tyrosinase de champignon, the “Facteur de normalisation” value was 1,00 and the Affinités relatives is recorded as 1,00.
